In series [1] the test system is Rattus norvegicus. As to the kind of experiment: Tested for situational anxiety in rats by measuring the latency exit from a chamber after po comparison with the activity values. It is filed as functional.
The target of series [2] is T1, Corticotropin-releasing factor receptor 1 (Homo sapiens, UniProt P34998).
T1 sequence (P34998 whole entry): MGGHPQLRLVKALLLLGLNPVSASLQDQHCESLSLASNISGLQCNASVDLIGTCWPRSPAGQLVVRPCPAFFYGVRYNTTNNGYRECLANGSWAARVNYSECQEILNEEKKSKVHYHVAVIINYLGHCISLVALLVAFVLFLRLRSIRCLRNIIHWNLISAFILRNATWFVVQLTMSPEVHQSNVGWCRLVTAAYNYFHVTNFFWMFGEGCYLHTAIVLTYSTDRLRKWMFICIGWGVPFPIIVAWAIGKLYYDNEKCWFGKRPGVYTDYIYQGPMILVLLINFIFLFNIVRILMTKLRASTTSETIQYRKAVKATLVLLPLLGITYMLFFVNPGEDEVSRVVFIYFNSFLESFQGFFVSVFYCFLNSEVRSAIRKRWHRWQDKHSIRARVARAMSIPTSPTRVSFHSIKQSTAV
Put plainly: Displacement of [125I]-tyrosine-ovine-CRF from human Corticotropin releasing factor receptor 1. (In a radioligand displacement assay an active substance lowers the binding of a labelled ligand.)

For series [3], the species on record is Rattus norvegicus. As to the kind of experiment: %binding inhibition in rat ex vivo assay after three hours. It is filed as functional. Details: concentration or dose not given beside the values.
The species entered for series [4] is Rattus norvegicus. As to the kind of experiment: %binding inhibition in rat ex vivo assay after one hour. Format: functional. Set-up: concentration or dose not given beside the values.
Series [5] is described as follows: % bioavailability value was determined in dogs after po dose of 1 mg/kg. It is filed as ADME, organism-based, Canis lupus familiaris. The conditions noted are these: dog, in vivo, read-out: Bioavailabiility.
A short description of series [6]: CL (L/h/kg) value was determined in dogs after intravenous dose of 1 mg/kg. It is filed as ADME, organism-based, Canis lupus familiaris. Set-up: dose 1 mg/kg, route intravenous. Conditions: dog, in vivo, read-out: Vss (converted).
Series [7] relates to Rattus norvegicus. As to the kind of experiment: (§1) Tested for situational anxiety in rats by measuring the latency exit from a chamber after po administration. It is filed as functional.
Series [8] in a line: t1/2 (h) value was determined in dogs after po dose of 1 mg/kg. It is filed as ADME, organism-based, Canis lupus familiaris. The conditions noted are these: dog, in vivo. Set-up: dose 1 mg/kg, route oral.
Series [9] relates to Canis familiaris. As to the kind of experiment: AUCT(nM.h) value was determined in dogs after intravenous dose of 1 mg/kg. It is filed as ADME, organism-based, Canis lupus familiaris, Plasma. Set-up: dose 1 mg/kg, route intravenous. Conditions: dog, in vivo.
Series [10] relates to Rattus norvegicus. The description is as §1. Format: functional. This is another data set of the same source.
Series [11] in a line: Vss(L/kg)value was determined in dogs after intravenous dose of 1 mg/kg. It is filed as ADME, organism-based, Canis lupus familiaris. Details: dose 1 mg/kg, route intravenous. The conditions noted are these: dog, in vivo, read-out: Vss.
Series [12] is described as follows: Tmax(h)value was determined in dogs after po dose of 1 mg/kg. It is filed as ADME, organism-based, Canis lupus familiaris. Set-up: dose 1 mg/kg, route oral. The conditions noted are these: dog, in vivo.
In series [13] the test system is Canis familiaris. As to the kind of experiment: AUC(nM.h) value was determined in dogs after po dose of 1 mg/kg. It is filed as ADME, organism-based, Canis lupus familiaris, Plasma. Details: dose 1 mg/kg, route oral. Conditions: dog, in vivo.
A short description of series [14]: t1/2 (h) value was determined in rats after po dose of 5 mg/kg. Format: ADME, organism-based. Set-up: dose 5 mg/kg, route oral. The conditions noted are these: rat, in vivo.
Series [15] concerns Rattus norvegicus. As to the kind of experiment: AUC(nM.h) value was determined in rats after po dose of 5 mg/kg. It is filed as ADME, organism-based, Plasma. Set-up: dose 5 mg/kg, route oral. The conditions noted are these: in vivo.
For series [16], the system named is Rattus norvegicus. As to the kind of experiment: CL(L/h/kg) value was determined in rats after intravenous dose of 5 mg/kg. Format: ADME, organism-based. Details: dose 5 mg/kg, route intravenous. The conditions noted are these: in vivo.
Series [17] in a line: C5min (nM) value was determined in dogs after intravenous dose of 1 mg/kg. It is filed as ADME, organism-based, Canis lupus familiaris. Details: dose 1 mg/kg, route intravenous. Conditions: dog, in vivo, read-out: C5 min.
A short description of series [18]: t1/2 (h) value of was determined in rats after intravenous dose of 5 mg/kg. Format: ADME, organism-based. Details: dose 5 mg/kg, route intravenous. The conditions noted are these: rat, in vivo.
A short description of series [19]: C5min (nM) value was determined in rats after intravenous dose of 5 mg/kg. Conditions: rat, in vivo, read-out: C5 min. It is filed as ADME, organism-based. Set-up: dose 5 mg/kg, route intravenous.
A short description of series [20]: Tmax(h)value was determined in rats after po dose of 5 mg/kg. It is filed as ADME, organism-based. Set-up: dose 5 mg/kg, route oral. Conditions: rat, in vivo.
Series [21] concerns Rattus norvegicus. The series is described as §1. It is filed as functional. The source holds these as a separate data set.
For series [22], the system named is Canis familiaris. Put plainly: AUC(nM.h) value was determined in dogs after intravenous dose of 1 mg/kg. It is filed as ADME, organism-based, Canis lupus familiaris, Plasma. Details: dose 1 mg/kg, route intravenous. The conditions noted are these: dog, in vivo.
For series [23], the system named is Rattus norvegicus. As to the kind of experiment: AUCT(nM.h) value was determined in rats after po dose of 5 mg/kg. It is filed as ADME, organism-based, Plasma. Details: dose 5 mg/kg, route oral. The conditions noted are these: in vivo.
Series [24] concerns Rattus norvegicus. The description is as §1. It is filed as functional. The source holds these as a separate data set.
A short description of series [25]: Vss(L/kg) value was determined in rats after intravenous dose of 5 mg/kg. It is filed as ADME, organism-based. Details: dose 5 mg/kg, route intravenous. The conditions noted are these: rat, in vivo, read-out: Vss.
Series [26] is described as follows: t1/2 (h) value was determined in dogs after intravenous dose of 1 mg/kg. Format: ADME, organism-based, Canis lupus familiaris. Details: dose 1 mg/kg, route intravenous. The conditions noted are these: dog, in vivo.
For series [27], the system named is Canis familiaris. As to the kind of experiment: AUCT(nM.h) value was determined in dogs after po dose of 1 mg/kg. Format: ADME, organism-based, Canis lupus familiaris, Plasma. Set-up: dose 1 mg/kg, route oral. Conditions: dog, in vivo.
The nature of series [28]: Cmax(nM)value was determined in rats after po dose of 5 mg/kg. It is filed as ADME, organism-based. Set-up: dose 5 mg/kg, route oral. The conditions noted are these: rat, in vivo.
Series [29] is described as follows: %bioavail value was determined in rats after po dose of 5 mg/kg. Format: ADME, organism-based. Set-up: dose 5 mg/kg, route oral. Conditions: rat, in vivo, read-out: Bioavailabiility.
For series [30], the species on record is Rattus norvegicus. Put plainly: % binding inhibition in rat ex vivo assay after one hour. It is filed as functional.
Series [31] is filed under the species Rattus norvegicus. As to the kind of experiment: % binding inhibition in rat ex vivo assay after three hours. Format: functional.

Molecules are shown by their SMILES. Several values for one entry are separate records, joined by “and”; a condition that tells them apart may be missing. Identical values can stand only once.

Broadly, the Ki is a dissociation constant, usually derived from enzyme kinetics or from competition with a known ligand. Usually half-life stands for the time in which the quantity being followed falls by half. Broadly, the Tmax is the time from dosing to the highest level. As a reminder, the Cmax is the peak of the concentration-time curve.

With `CNC1=Nc2ccc(Cl)cc2C(c2ccccc2)=[N+]([O-])C1` [CHLORDIAZEPOXIDE], the Latency to exit with Rattus norvegicus [1] is listed as under 216.

Take `Cc1nc(N(C)c2ccccc2)n2nc(C)c(-c3ccc(Cl)cc3Cl)c2n1`: the Ki in series [2] was 44.5 nM.

`CCCCC(CC)Nc1nc(C)nc2c(-c3ccc(Cl)cc3Cl)c(C)nn12` (centres undefined) came in with a Ki in [2] of 1.6 nM.

Take `CCCC(CCC)Nc1nc(C)nc2c(-c3ccc(Cl)cc3Cl)c(C)nn12`: the Ki in series [2] was found to be 1.6 nM. The Binding inhibition is reported as 74.8% in the series listed under Rattus norvegicus [3] and 63.9% in the series filed under Rattus norvegicus [4].

As for `CCC(CC)Nc1nc(C)nc2c(-c3ccc(Cl)cc3Cl)c(C)nn12`, the inhibition constant Ki in series [2] stood at 1.1 nM. The Binding inhibition in the series listed under Rattus norvegicus [3] was 71.8%; in the series filed under Rattus norvegicus [4] it was 65.9%.

For `CCCN(CCC)c1nc(C)nc2c(-c3ccc(Cl)cc3Cl)c(C)nn12`, in [2], the Ki is 0.6 nM.

In series [2], `CCC(COC)Nc1nc(C)nc2c(-c3ccc(Cl)cc3Cl)c(C)nn12` (centres undefined) registered a Ki of 1.9 nM.

For the compound `CCCCN(CC)c1nc(C)nc2c1c(C)cn2-c1c(C)cc(C)cc1C.Cl`, the Binding inhibition in the series filed under Rattus norvegicus [3] and in the series filed under Rattus norvegicus [4] was under 10% each time.

`CCCC(CC)Nc1nc(C)nc2c(-c3ccc(Cl)cc3Cl)c(C)nn12` (centres undefined) came in with an inhibition constant Ki in [2] of 1.2 nM. Further, the Binding inhibition in the series filed under Rattus norvegicus [3] was determined as 67%; in the series listed under Rattus norvegicus [4] it was 46.6%.

Compound `CCCN(CC1CC1)c1nc(C)nc2c(-c3ccc(Cl)cc3Cl)c(C)nn12` showed a Ki in series [2] of 0.7 nM. Besides, the values for the Binding inhibition in the series listed under Rattus norvegicus [3] and in the series listed under Rattus norvegicus [4] were 95.4% and 73.3%, respectively.

In the case of `COCC(COC)Nc1nc(C)nc2c(-c3ccc(Cl)cc3Cl)c(C)nn12`, the bioavailability in [5] worked out at 49.7%; in [29] it was 36.7%. For the same compound, in [6], the clearance is 15.8 mL/min/kg. The Latency to exit in the series on Rattus norvegicus [7] is 680; in the series with Rattus norvegicus [10] it was under 482; in the series with Rattus norvegicus [21], under 408; in the series with Rattus norvegicus [24], <426 and <286. Further, the half-life in series [8] was 33.4 h; in series [14], 16.5 h; in series [18], 12.3 h; in [26], 34.5 h. Besides, the AUC T is 2.27 µM·h in the series on Canis familiaris [9], 1.86 µM·h with Rattus norvegicus [23] and 0.469 µM·h with Canis familiaris [27]. Also, the Vd in series [11] was determined as 27.1 L/kg; in series [25], 21.5 L/kg. This compound also registered an inhibitory constant (Ki) in series [2] of 1.7 nM. In addition, the Tmax in [12] came out at 0.88 h; in [20], 0.44 h. Further, the AUC with Canis familiaris [13] was 555 Nm.H; in the series on Rattus norvegicus [15] it was 2.26 µM·h; in the series with Canis familiaris [22], 2.69 µM·h. The Binding inhibition in the series filed under Rattus norvegicus [3] worked out at 81.3%; in the series listed under Rattus norvegicus [4] it was 78.2%. This compound had a CL with Rattus norvegicus [16] of 2 kg⁻¹ h⁻¹. The values for the concentration at 5 min in series [17] and in series [19] were 1370 nM and 2880 nM, respectively. The same compound returned a Cmax in series [28] of 317 nM.

For `CCCCN(CC)c1nc(C)nc2c(-c3ccc(Cl)cc3Cl)c(C)nn12`, the Binding inhibition was 73.2% in the series filed under Rattus norvegicus [30] and 82.9% in the series listed under Rattus norvegicus [31]. Moreover, the inhibitory constant (Ki) in [2] came out at 0.4 nM.

For `CCOCC(COCC)Nc1nc(C)nc2c(-c3ccc(Cl)cc3Cl)c(C)nn12`, the Ki in series [2] was 6.2 nM.

The compound `COCCN(CCOC)c1nc(C)nc2c(-c3ccc(Cl)cc3Cl)c(C)nn12` came in with a Ki in series [2] of 1.8 nM. In addition, the results for the Binding inhibition in the series listed under Rattus norvegicus [3] and in the series listed under Rattus norvegicus [4] were 92.9% and 85.4%, respectively.
